Here are results for one molecule from patent publication US20130064815A1, “INDUCING APOPTOSIS IN QUIESCENT CELLS” (THE TRUSTEES OF PRINCETON UNIVERSITY, priority 2011, published 2013).

In one series the test system is P and CI14 fibroblasts. The experiment in a line: PPP inhibition and PI live/dead analysis by flow cytometry. Format: cell-based, human. The following applies: CI14 vs proliferating fibroblasts; 100 μM and 250 μM, four days; p<0.01. How it is done:
The function of the PPP in quiescent and proliferating fibroblasts was tested. Proliferating or CI14 fibroblasts were incubated with DHEA, a small molecule inhibitor of the PPP for four days. The fraction of cells that were dead was monitored with propidium iodide (PI) labeling followed by flow cytometry.
PPP inhibition and PI live/dead analysis: P and CI14 fibroblasts were treated with dehydroepiandrosterone dissolved in ethanol or dimethylsufoxide (0.1% vol/vol) for four days. On the fourth day of treatment with the inhibitor, cells were trypsinized and collected into conditioned media. Cells were then centrifuged for 5 min at 1000 rpm. The supernatant was aspirated and cells were taken up in PBS with 1 μg/ml PI (VWR, West Chester, Pa.). Cells were kept on ice and immediately analyzed by flow cytometry using a BD LSRII multi-laser analyzer (BD Biosciences, San Jose, Calif.). PI was excited at 488 nm and emitted fluorescence was collected through a 610/20 bandpass filter. At least 40,000 cells were collected and analyzed with FACSDiVa software (BD Biosciences, San Jose, Calif.). PI negative cells were counted as live cells and PI positive cells were counted as dead cells.
On the technique in general: Flow cytometry measures light scatter and fluorescence of single cells or particles in a stream.

For a further series, the system named is colon cancer. To be noted: in vivo; cited from earlier work.
The test system of a further series is oxidized proteins. The experiment in a line: oxidized (carbonylated) protein immunoblot after DNP derivatization. To be noted: DHEA treatment. Format: cell-based, human. An excerpt:
Glutathione plays an important role in ROS scavenging, both by acting as a cofactor for glutathione peroxidase and via direct interaction with ROS (Jones et al., “Kinetics of superoxide scavenging by glutathione: an evaluation of its role in the removal of mitochrondrial superoxide, Biochem Soc Trans 31, 1337-1339, 2003, which is incorporated herein by reference as if fully set forth). The effects of DHEA treatment on the levels of oxidized proteins were monitored in proliferating and 7 dSS fibroblasts (FIG. 20). Oxidized, carbonylated proteins were derivatized with […] and monitored with an anti-2,4, dinitrophenol antibody. […] Thus, the 7 dSS fibroblasts rely on DHEA-sensitive pathways to maintain low levels of oxidized protein.
In addition to its role in providing amino acids and energy under starvation conditions, autophagy is involved in maintenance of cellular homeostasis and resistance to tumorigenesis through degradation of old or damaged proteins and entire organelles. […] To monitor the extent of protein oxidation in proliferating and contact-inhibited fibroblasts, the protein carbonyl groups were derivatized using 2,4-dinitrophenylhydrazine (DNP), and monitored using immunoblotting with an antibody that recognizes the covalently added DNP. […]

Series [1] concerns low-grade cervical lesions. The following applies: 12 women with low-grade dysplasia; intravaginal; cited from earlier work.
In a further series the target is T1, G6PD (Homo sapiens, UniProt P11413).
T1 construct: endogenous in cells; host or cells: primary human foreskin fibroblasts (proliferating or serum-starved)
The series can be described thus: G6PD activity in fibroblasts treated with DHEA. It counts as cell-based. An excerpt: Referring to FIGS. 18A and 18B, NADPH production is induced in quiescent fibroblasts. G6PD, PGD and IDH1 are expressed at low levels in proliferating fibroblasts, at higher levels in 7 dCI, 14 dCI and 14 dCI7 dSS fibroblasts, and at even higher levels in 4 dSS and 7 dSS fibroblasts (FIGS. 18A and 18B). Malic enzyme, another protein that generates NADPH but was not predicted to be differentially active in proliferating versus quiescent fibroblasts, was expressed at similar levels in cells in all conditions. The activity of the NADPH-producing enzymes in cytosolic or mitochondrial lysates collected from cells in different proliferative conditions is shown in FIG. 18A. Immunoblotting confirmed successful separation of mitochondrial and cytosolic proteins. Lysates were incubated with the appropriate substrate and the rate of enzymatic activity was determined based on the appearance or disappearance of NADH or NADPH. G6PD had the highest specific activity among the enzymes monitored, consistent with previous reports that it is the most important contributor to NAPDH levels. […] Thus NADPH-generating enzymes in the pentose-phosphate pathway are activated in serum-starved fibroblasts. […]

The next series deals with tumor cells. To be noted: intraperitoneal injection of tumor cells; cited from earlier work.

T1 sequence (P11413 whole entry): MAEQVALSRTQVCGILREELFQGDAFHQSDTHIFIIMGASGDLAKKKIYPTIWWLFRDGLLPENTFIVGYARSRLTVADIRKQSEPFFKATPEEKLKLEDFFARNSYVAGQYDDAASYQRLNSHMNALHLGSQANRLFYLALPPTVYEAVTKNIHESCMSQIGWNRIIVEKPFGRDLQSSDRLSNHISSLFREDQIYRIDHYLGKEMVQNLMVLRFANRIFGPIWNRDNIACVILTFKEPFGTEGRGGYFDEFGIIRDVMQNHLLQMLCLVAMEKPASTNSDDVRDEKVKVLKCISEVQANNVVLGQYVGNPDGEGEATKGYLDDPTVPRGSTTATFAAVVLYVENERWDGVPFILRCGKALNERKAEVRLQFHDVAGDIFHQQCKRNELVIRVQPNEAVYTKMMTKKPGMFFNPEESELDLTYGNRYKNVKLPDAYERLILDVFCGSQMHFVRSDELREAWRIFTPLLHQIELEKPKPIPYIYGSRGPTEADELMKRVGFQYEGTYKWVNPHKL

For `C[C@]12CC[C@H](O)CC1=CC[C@@H]1[C@@H]2CC[C@]2(C)C(=O)CC[C@@H]12` [DHEA, dehydroepiandrosterone], in the series with P and CI14 fibroblasts, the “cell death (PI labeling)” value is on record as “statistically significant increase in cell death”. Moreover, the “effect on colon cancer” value in the series with colon cancer is on record as “chemopreventative effect”. Further, the oxidized protein levels entry in the series on oxidized proteins (7 dSS fibroblasts) is “significantly increased”; in the series with oxidized proteins (proliferating fibroblasts), “little effect”. Also, the “regression of low-grade cervical lesions” value in series [1] was “may promote regression of low-grade cervical lesions”. Besides, the safety entry in series [1] was “safe to administer”. For the same molecule, the G6PD activity entry is “declined” on G6PD (proliferating cells treated with DHEA) and “significantly declined” at G6PD (serum-starved fibroblasts treated with DHEA). Besides, in the series on tumor cells, the tumor growth entry is given as “inhibit tumor growth”.
